This is an account of results in BindingDB's records for doi:10.7270/Q2Q52N1X (Vanderbilt Screening Center for GPCRs, Ion Channels and …, 2009).

The target of the first assay is T1, Solute carrier family 12 member 5 (Homo sapiens, UniProt Q9H2X9).
T1 sequence (Q9H2X9 whole entry): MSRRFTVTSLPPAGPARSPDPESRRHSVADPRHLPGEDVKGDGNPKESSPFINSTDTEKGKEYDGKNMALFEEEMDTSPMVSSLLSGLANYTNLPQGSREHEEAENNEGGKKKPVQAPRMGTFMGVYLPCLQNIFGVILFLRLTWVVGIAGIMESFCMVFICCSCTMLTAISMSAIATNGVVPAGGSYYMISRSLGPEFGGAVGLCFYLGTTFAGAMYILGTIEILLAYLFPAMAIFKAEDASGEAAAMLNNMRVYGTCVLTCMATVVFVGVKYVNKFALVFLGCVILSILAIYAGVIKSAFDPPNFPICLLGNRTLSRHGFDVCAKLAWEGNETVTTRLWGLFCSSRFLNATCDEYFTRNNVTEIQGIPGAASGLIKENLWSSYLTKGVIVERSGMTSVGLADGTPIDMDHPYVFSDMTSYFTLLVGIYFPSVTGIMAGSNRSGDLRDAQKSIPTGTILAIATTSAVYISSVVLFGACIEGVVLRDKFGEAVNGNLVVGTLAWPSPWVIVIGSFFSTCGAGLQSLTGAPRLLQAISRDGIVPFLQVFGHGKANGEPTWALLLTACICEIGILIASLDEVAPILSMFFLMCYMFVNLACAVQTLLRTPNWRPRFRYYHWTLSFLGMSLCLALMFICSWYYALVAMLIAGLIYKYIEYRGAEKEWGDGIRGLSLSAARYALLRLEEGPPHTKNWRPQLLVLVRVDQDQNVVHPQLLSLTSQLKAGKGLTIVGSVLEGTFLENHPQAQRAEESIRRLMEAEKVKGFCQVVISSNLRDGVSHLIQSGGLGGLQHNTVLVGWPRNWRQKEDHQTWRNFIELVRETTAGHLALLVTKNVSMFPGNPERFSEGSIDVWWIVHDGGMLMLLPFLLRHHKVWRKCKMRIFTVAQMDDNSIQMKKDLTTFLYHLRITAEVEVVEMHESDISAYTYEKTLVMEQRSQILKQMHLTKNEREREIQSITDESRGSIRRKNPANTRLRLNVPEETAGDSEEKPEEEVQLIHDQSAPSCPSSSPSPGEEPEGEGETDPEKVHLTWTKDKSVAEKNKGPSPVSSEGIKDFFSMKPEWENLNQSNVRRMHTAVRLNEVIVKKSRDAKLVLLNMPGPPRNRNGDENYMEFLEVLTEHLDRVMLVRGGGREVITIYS
Nature of the assay: concentration-response of KCC2 transport modulators – cell-based, HEK293 KCC2, FluoZin-2 fluorescence, dose response (AID 1736).
Conditions: not given
Molecule `O=C(Cc1csc(-c2ccccc2)n1)NCc1ccc(F)cc1` [MLS000336311] gave a concentration giving a half-maximal response (EC50) of 19.4 µM.
`O=C(C1CCN(c2nc3ccc(Br)cc3s2)CC1)N1CCC2(CC1)OCCO2` [8-{[1-(6-bromo-1,3-benzothiazol-2-yl)piperidin-4-yl]carbonyl}-1,4-dioxa-8-azaspiro[4.5]decane] registered an EC50 of 7.02 µM.
The same measure, in the same setting: with `O=C(OC1CCc2ccccc2C1=O)c1ccccc1O` (stereo unspecified) [MLS000051417] the figure was 0.53 µM.
The same measure, in the same setting: the figure for `Cn1c(C(=O)NCCN2CCN(c3ccccc3F)CC2)cc2c(=O)n(C)c3ccccc3c21` [MLS000118132] is 2.68 µM; for `Cc1cc(C)c(C#N)c(N2CCN(Cc3ccccc3)CC2)n1` [2-(4-benzyl-1-piperazinyl)-4,6-dimethylnicotinonitrile] it is 19.4 µM.
The same measure, in the same setting: with `Cc1nc(SCc2ccc(F)cc2)c([N+](=O)[O-])[nH]1` [SMR000271028] the figure was 878 µM; with `CS/C(=N\Cc1ccc(F)cc1)NS(=O)(=O)c1cccs1` [3-(4-fluorobenzyl)-2-methyl-1-(2-thienylsulfonyl)isothiourea], 0.89 µM; with `O=[N+]([O-])c1cc(-n2c(O)c3c(c2O)CCCC3)ccc1NC1CCN(Cc2ccccc2)CC1` [2-[3-nitro-4-[[1-(phenylmethyl)-4-piperidinyl]amino]phenyl]-3a,4,5,6,7,7a-hexahydroisoindole-1,3-dione], 5.5 µM.
With `N#Cc1nc(Cc2cccc3ccccc23)oc1N1CCOCC1` [5-(4-morpholinyl)-2-(1-naphthalenylmethyl)-4-oxazolecarbonitrile], it took 1.77 µM to reach a half-maximal effect (EC50).
In turn, `O=C(NN=Cc1ccc(OCc2ccccc2)cc1)c1cc[n+](Cc2ccccc2)cc1` [1-benzyl-4-({2-[4-(benzyloxy)benzylidene]hydrazino}carbonyl)pyridinium chloride] registered an EC50 of 563 µM.
The same measure, in the same setting: the figure for `COc1ccc(OC)c(-n2nnnc2SCC(=O)NCCc2ccccc2)c1` [2-[1-(2,5-Dimethoxy-phenyl)-1H-tetrazol-5-ylsulfanyl]-N-phenethyl-acetamide] is 242 µM; for `CC(=NNC(=O)c1ccc(Cl)c(Cl)c1)c1ccc(Br)s1` [N-[1-(5-bromo-2-thiophenyl)ethylideneamino]-3,4-dichlorobenzamide] it is 0.48 µM; for `COc1ccc(-c2cc(CNC(=O)CN(C)Cc3ccccc3)on2)cc1` [2-[benzyl(methyl)amino]-N-[[3-(4-methoxyphenyl)-1,2-oxazol-5-yl]methyl]acetamide] it is 15 µM.
Still for that read-out and setting: the figure for `Cc1nn(-c2ccc(F)cc2)c(C)c1NS(=O)(=O)c1ccc2ccccc2c1` [MLS000565745] is 1.99 µM; for `CNC(=O)/C(=C\C=C\c1ccccc1)NC(=O)c1ccc([N+](=O)[O-])cc1` [MLS000570424] it is 3.2 µM.
With `O=C(CN(c1ccc2c(c1)OCCO2)S(=O)(=O)c1ccccc1)N1CCN(Cc2ccccc2)CC1` [MLS000693333], the EC50 stood at 2.43 µM.
For `O=C(NC(=S)Nc1nc(-c2cccc([N+](=O)[O-])c2)cs1)c1ccccc1Cl` [2-chloranyl-N-[[4-(3-nitrophenyl)-1,3-thiazol-2-yl]carbamothioyl]benzamide], the response was half-maximal at 6.81 µM (EC50).
In the case of `C=CCn1c(Cc2cccs2)nnc1SCC(=O)c1ccc2ccccc2c1` [1-(2-naphthalenyl)-2-[[4-prop-2-enyl-5-(thiophen-2-ylmethyl)-1,2,4-triazol-3-yl]thio]ethanone], the EC50 worked out at 4.99 µM. This EC50 and that of the molecule before are within 1.5-fold of each other.
Regarding `S=C(NCc1cccnc1)Nc1ccc(Oc2ccccc2)cc1` [1-(4-phenoxyphenyl)-3-(3-pyridinylmethyl)thiourea], the EC50 turned out to be 5.3 µM.
The molecule `O=C(CSc1nnc(-c2c[nH]c3ccccc23)o1)N1CCCCC1` [SMR000003748] registered an EC50 of 3.79 µM.
As for `O=C(O)CCN(Cc1ccccc1)S(=O)(=O)c1c(Cl)cccc1Cl` [3-[(2,6-dichlorophenyl)sulfonyl-(phenylmethyl)amino]propanoic acid], the EC50 stood at 53.1 µM. Compared with the last molecule, the EC50 is about 14-fold higher.
Regarding `CC(NNC(=O)c1ccc(Br)cc1)=C1C(=O)c2ccccc2C1=O` [SMR000116009], a half-maximal effect (EC50) was put at 1.56 µM. This EC50 is about 34-fold lower than that of the molecule before.
With `Cc1ccc(C(=O)Nc2nc(=O)n(C(=O)c3ccccc3Cl)s2)cc1` [MLS000540480], the EC50 came to 3.93 µM.
On the same count and under the same terms, with `O=C(c1ccc(N2CCCCCC2)c([N+](=O)[O-])c1)N1CCc2ccccc21` [1-(4-azepan-1-yl-3-nitrobenzoyl)indoline] the figure was 0.556 µM; with `COCCNS(=O)(=O)c1ccc(-c2ccc(Cl)cc2)cc1` [4'-chloro-N-(2-methoxyethyl)-4-biphenylsulfonamide], 7.84 µM; with `Cn1nccc1C(=O)OCC(=O)Nc1nc(-c2ccccc2)cs1` [2-Methyl-2H-pyrazole-3-carboxylic acid (4-phenyl-thiazol-2-ylcarbamoyl)-methyl ester], 10.9 µM.
In the case of `CS(=O)(=O)N(CC(=O)N1CCN(c2ccc(F)cc2)CC1)c1ccc(F)c(Cl)c1` [MLS000531433], the EC50 turned out to be 7.63 µM.
For the molecule `Cc1ccc(Cn2nnc3c(=O)[nH]c(C4CCN(S(=O)(=O)c5ccc(F)cc5)CC4)nc32)cc1` [5-[1-(4-fluorophenyl)sulfonylpiperidin-4-yl]-3-[(4-methylphenyl)methyl]-2H-triazolo[4,5-d]pyrimidin-7-one], it took 11.1 µM to reach a half-maximal effect (EC50).
Turning to `c1ccc(-n2cnc3cc(NCc4ccncc4)ccc32)cc1` [(1-phenylbenzimidazol-5-yl)-(4-pyridylmethyl)amine], the response was half-maximal at 5.54 µM (EC50).
For the molecule `O=C(C1CCN(S(=O)(=O)c2cccs2)CC1)N1CCc2ccccc2C1` [3,4-dihydro-1H-isoquinolin-2-yl-(1-thiophen-2-ylsulfonyl-4-piperidinyl)methanone], a half-maximal response (EC50) required 4.18 µM.
For `O=C(NCc1cccnc1)c1ccc(COc2ccccc2Br)o1` [5-[(2-bromanylphenoxy)methyl]-N-(pyridin-3-ylmethyl)furan-2-carboxamide], the EC50 came out at 9.14 µM. This EC50 is about 2.2-fold higher than that of the molecule before.
Still for that read-out and setting: the figure for `Cc1ccccc1OCC(=O)NNC(=O)CCN1C(=O)c2ccccc2C1=O` [3-(1,3-dioxo-2-isoindolyl)-N'-[2-(2-methylphenoxy)-1-oxoethyl]propanehydrazide] is 14.8 µM.
The molecule `O=C(NNc1nc(-c2ccccc2)cs1)c1cccs1` [MLS000858987] gave an EC50 of 0.252 µM.
Regarding `O=C(/C=C/c1ccco1)N1CCC(Cc2ccccc2)CC1` [(E)-1-(4-benzylpiperidin-1-yl)-3-(furan-2-yl)prop-2-en-1-one], the concentration giving a half-maximal response (EC50) worked out at 2.93 µM.
`CCC(CC)NC(=O)CSc1nnc(-c2c[nH]c3ccccc23)o1` [MLS001017505] yielded an EC50 of 334 µM.
On the same count and under the same terms, the figure for `O=C(O)/C=C/c1cn(Cc2ccccc2Cl)nc1-c1ccccc1` [(E)-3-[1-(2-chlorobenzyl)-3-phenyl-pyrazol-4-yl]acrylic acid] is 2.04 µM.
On the same count and under the same terms, the figure for `COc1ccc(S(=O)(=O)N2CCC(C(=O)N3CCc4ccccc4C3)CC2)cc1C` [2-({1-[(4-methoxy-3-methylphenyl)sulfonyl]-4-piperidinyl}carbonyl)-1,2,3,4-tetrahydroisoquinoline] is 14.4 µM; for `N#CC(C(=O)COc1ccccc1)c1nc2ccccc2s1` (stereo unspecified) [(2Z)-2-(3H-1,3-benzothiazol-2-ylidene)-3-keto-4-phenoxy-butyronitrile] it is 6.56 µM.
With `O=C(O)c1cc([N+](=O)[O-])ccc1NCc1ccccc1` [2-(benzylamino)-5-nitro-benzoic acid], it took 4.96 µM to reach a half-maximal effect (EC50).
Still for that read-out and setting: with `Sc1nnc(COc2ccc(Cl)cc2)o1` [5-(4-Chloro-phenoxymethyl)-3H-[1,3,4]oxadiazole-2-thione] the figure was 4.06 µM.

The same assay, now with this note: inactive by the depositor's call.
Regarding `Cc1cc(Cl)ccc1Oc1ccccc1C(=O)CC#N` [3-[2-(4-chloranyl-2-methyl-phenoxy)phenyl]-3-oxidanylidene-propanenitrile], the EC50 is 233 µM.
Same read-out and setting: the figure for `CCOC(=O)c1c(C)[nH]c(C)c1C(=O)CSc1nc(N)cc(N)n1` [SMR000063952] is 1.88 µM; for `Cc1ccc(C=Nn2c(-c3ccc(Cl)cc3)n[nH]c2=S)s1` [3-(4-chlorophenyl)-4-[(5-methyl-2-thiophenyl)methylideneamino]-1H-1,2,4-triazole-5-thione] it is 188 µM.
On the same count and under the same terms, with `O=C(NC(=S)Nc1ccc2c(c1)OCO2)c1ccc(Cl)cc1` [1-Benzo[1,3]dioxol-5-yl-3-(4-chloro-benzoyl)-thiourea] the figure was 0.0741 µM; with `O=C(CN1C(=O)NC(Cc2ccccc2)C1=O)NC(=O)NC1CCCCC1` (stereo unspecified) [2-(4-benzyl-2,5-diketo-imidazolidin-1-yl)-N-(cyclohexylcarbamoyl)acetamide], 69.9 µM.
Take `CN(CC(=O)N1CC(=O)N(CCc2ccccc2)C(=O)C1)S(=O)(=O)c1cccc2nsnc12` [MLS000095099]: the EC50 amounted to 2270 µM.
